From article PMC5840523, “Assessment of a pretomanid analogue library for African trypanosomiasis: Hit-to-lead studies on 6-substituted 2-nitro-6,7-dihydro-5H-imidazo[2,1-b][1,3]thiazine 8-oxides” (Bioorganic & Medicinal Chemistry Letters, 2018)
≈ marks a conversion by molar mass, not a printed value. Where two headings read alike, the source gives them in different places. Blank lines part the entries; values can stand above or below the compound they belong to.

Legend:
[1] = tested on: T. b. brucei (TREU 667); conditions: cited from earlier work
[2] = tested on: human lung fibroblasts (MRC-5 cells); assay: Cytotoxicity toward MRC-5 cells (University of Antwerp); assay type: cell-based
[3] = tested on: T. b. rhodesiense; assay: T. b. rhodesiense growth inhibition (University of Antwerp); assay type: cell-based, Trypanosoma brucei rhodesiense; conditions: for IC50: mean of 2 to 5 determinations, read-out: IC50 T. b. rhod
[4] = tested on: T. b. brucei 427; assay: T. b. brucei growth inhibition (University of Antwerp); assay type: cell-based, Trypanosoma brucei brucei; conditions: for IC50: T. b. brucei 427, mean of 2 to 5 determinations, read-out: IC50 T. b. bruc
[5] = tested on: MDCK-MDR1 cell monolayer; conditions: dog, MDCK-MDR1, 1 h, 3 µM
[6] = tested on: Leishmania infantum; assay: L. infantum growth inhibition (University of Antwerp); assay type: cell-based; conditions: mean of 2 to 5 determinations
[7] = tested on: Trypanosoma cruzi; assay: T. cruzi growth inhibition (University of Antwerp); assay type: cell-based; conditions: mean of 2 to 5 determinations
[8] = tested on: T. b. brucei 427; assay: T. b. brucei 427 growth inhibition (Scynexis); assay type: cell-based, Trypanosoma brucei brucei; conditions: for Selectivity Index: L929 vs T. b. brucei; for IC50: Trypanosoma brucei, growth inhibition of T. b. brucei 427, mean ± SD
[9] = tested on: L929 mouse fibroblasts; assay: Cytotoxicity toward L929 mouse fibroblasts (Scynexis); assay type: cell-based
[10] = in vitro; conditions: dog, MDCK-MDR1, Permeability Papp
[11] = Mouse liver microsomal stability; assay type: in vitro ADME; conditions: CD-1 mouse liver microsomes
[12] = Kinetic solubility in water or 0.1 M HCl (ACSRC); assay type: physicochemical; conditions: read-out: aqueous solubility
[13] = tested on: T. b. brucei (TREU 667); assay: CNS (stage 2, chronic) HAT infection mouse model; assay type: in vivo, T. b. brucei; female Swiss Webster mice
Procedure: Therefore, 24 was examined in a stage 1 HAT mouse model.[14] Briefly, dosing was orally once daily for four days, starting 24 h postinfection, and parasitemia was assessed weekly via tail vein blood smears (see the Supporting Information). Excellent activity was observed (Table 4), with 24 providing complete cures (i.e. parasite free blood smears after >30 days) to all mice at doses as low as 5 mg/kg, similar to the control drug pentamidine (given i.p. at 2 mg/kg), whereas the vehicle only mice died on day 7. […]
Mouse Model for Chronic HAT Inf ection. Compound 24 was tested for in vi vo efficac y against chronic HAT infection caused b y T. b. brucei (TREU 667 strain) at the Haskin s Laboratories, Pace Universit y. […]
suspension formulation (0.8% CMC, 0.1% SDS in water) to groups of 8 or 10infected f emal e Swiss Webster mice, starting 21 d postinfection, according to a report ed method. 5 Animals remaining parasite free for more than 180 da ys beyond the end of the treatment period were […]

[14] = tested on: T. b. brucei (EATRO 110); assay: Acute (stage 1) HAT infection mouse model; assay type: in vivo, T. b. brucei; female Swiss Webster mice
Procedure: Therefore, 24 was examined in a stage 1 HAT mouse model.[14] Briefly, dosing was orally once daily for four days, starting 24 h postinfection, and parasitemia was assessed weekly via tail vein blood smears (see the Supporting Information). Excellent activity was observed (Table 4), with 24 providing complete cures (i.e. parasite free blood smears after >30 days) to all mice at doses as low as 5 mg/kg, similar to the control drug pentamidine (given i.p. at 2 mg/kg), whereas the vehicle only mice died on day 7. […] Here, oral dosing of 24 (at 12.5 to 50 mg/kg once daily for seven days from day 21 postinfection) led to significant increases in survival times in comparison to untreated controls (66–70 days vs 31 days; Table 5), although cure rates were inadequate (0–20%). […]
Mouse Model f or Acu te HAT Inf ection. Compound 24 was tested for in vivo effi cac y against acute HAT infection caused b y T. b. brucei (EATRO 110 strain) at the Haskins Laboratories, Pace Universit y. […] Infected animals or th ose showing si gns of infectionwer e euthanized.Untreated infected contr ol animals died after 5-7 days; mice remaining parasite free for more than 30 da ys beyond the end of the tr eatment period w er e con sidered cur ed. […]

[15] = Human liver microsomal stability; assay type: in vitro ADME; conditions: pooled human liver microsomes
[16] = in vitro; conditions: dog, MDCK-MDR1
[17] = Homo sapiens, MRC5, cytotoxicity toward human lung fibroblasts
[18] = Trypanosoma brucei, RHODESIENSE
[19] = 12.5 mg/kg orally once daily for 7 d from day 21 postinfection
[20] = 25 mg/kg orally once daily for 7 d from day 21 postinfection
[21] = 50 mg/kg orally once daily for 7 d from day 21 postinfection
[22] = 1.25 mg/kg orally once daily for 4 days
[23] = 2.5 mg/kg orally once daily for 4 days
[24] = 5 mg/kg orally once daily for 4 days
[25] = 12.5 mg/kg orally once daily for 4 days
[26] = 25 mg/kg orally once daily for 4 days
[27] = 50 mg/kg orally once daily for 4 days

SMILES: CC1(C)OB(O)c2cc(NC(=O)c3ccc(F)cc3C(F)(F)F)ccc21 [Compound 5]
cure rate ([1]; same CNS model, 25 mg/kg once daily for 7 days): 100%

SMILES: O=[N+]([O-])c1cn2c(n1)S(=O)(=O)CC(OCc1ccc(OCc3ccccc3)cc1)C2 (centres unmarked) [Compound 10]
IC50 [2, 17]: > 64 µM
IC50 [3, 18]: 0.027 µM
IC50 ([4]; Trypanosoma brucei): 0.097 µM
absolute AQ [5]: ≥ 0.3
IC50 ([6]; Leishmania infantum): 7.3 µM
IC50 ([7]; Trypanosoma cruzi): 0.35 µM
Selectivity Index [8]: >303
IC50 [8]: 0.033 ± 0.018 µg/mL (≈ 0.0768 µM)
IC50 [9]: > 10 µg/mL

SMILES: O=[N+]([O-])c1cn2c(n1)OC[C@@H](OCCCc1ccc(-c3ccc(Oc4ccc(C(F)(F)F)cc4)cc3)cc1)C2 [Compound 13]
Permeability Papp [5]: <0.08 ×10⁻⁶ cm/s
Selectivity Index [8]: >43
IC50 [8]: 0.23 ± 0.04 µg/mL (≈ 0.426 µM)
IC50 [9]: > 10 µg/mL
Papp at 1 h, 3 µM [10]: < 0.08 ×10⁻⁶ cm/s

SMILES: O=[N+]([O-])c1cn2c(n1)OCC(COc1ccc(-c3ccc(C(F)(F)F)cc3)nc1)C2 (centres unmarked) [Compound 14]
Permeability Papp [5]: 11.7 ×10⁻⁶ cm/s
absolute AQ [5]: ≥ 0.3
Selectivity Index [8]: >36
IC50 [8]: 0.28 ± 0.11 µg/mL (≈ 0.666 µM)
IC50 [9]: > 10 µg/mL
Papp at 1 h, 3 µM [10]: < 15 ×10⁻⁶ cm/s

SMILES: O=[N+]([O-])c1cn2c(n1)[S@+]([O-])C[C@@H](OCc1ccc(OC(F)(F)F)cc1)C2 [Compound 24]
IC50 [2, 17]: 50 µM
IC50 [3, 18]: 0.13 µM
remaining at 1 h [11]: 96%
IC50 ([4]; Trypanosoma brucei): 0.14 µM
solubility at 15 min ([12]; water): 106 µg/mL (≈ 271 µM)
Cured [13, 19]: 0%
Cured/Total [13, 19]: 0/8
Mean relapse time [13, 19]: 45 days
Cured [13, 20]: 20%
Cured/Total [13, 20]: 2/10
Mean relapse time [13, 20]: 70 days
Cured [13, 21]: 0%
Cured/Total [13, 21]: 0/10
Mean relapse time [13, 21]: 66 days
cure rates ([13]; 12.5 to 50 mg/kg orally once daily for seven days from day 21): 0–20%
IC50 ([6]; Leishmania infantum): 10 µM
IC50 ([7]; Trypanosoma cruzi): 1.4 µM
Selectivity Index [8]: > 143
potency relative to (6R) enantiomer 26 (fold more potent) ([8]; T. b. brucei): more than 70 fold
potency relative to cis isomer 25 (fold more potent) ([8]; T. b. brucei): 40 fold
IC50 [8]: 0.07 ± 0.005 µg/mL (≈ 0.179 µM)
Cured [14, 22]: 0%
Cured/Total [14, 22]: 0/4
Mean survival [14, 22]: 7.5 days
Cured [14, 23]: 25%
Cured/Total [14, 23]: 1/4
Mean survival [14, 23]: 13 days
Cured [14, 24]: 100%
Cured/Total [14, 24]: 4/4
Mean survival [14, 24]: >30 days
Cured [14, 25]: 100%
Cured/Total [14, 25]: 5/5
Mean survival [14, 25]: >30 days
Cured [14, 26]: 100%
Cured/Total [14, 26]: 5/5
Mean survival [14, 26]: >30 days
Cured [14, 27]: 100%
Cured/Total [14, 27]: 5/5
Mean survival [14, 27]: >30 days
lowest dose providing complete cures to all mice ([14]; orally once daily for four days): 5 mg/kg
efficacy relative to results described for fexinidazole (4) (fold superior) ([14]; stage 1 HAT mouse model): ~20 fold
IC50 [9]: > 10 µg/mL
remaining at 1 h [15]: 82%

SMILES: O=C(Nc1ccc2c(c1)B(O)OC2)c1ccc(F)cc1C(F)(F)F [SCYX-6759]
cure rate of the CNS infection ([1]; oral 50 mg/kg twice daily (b.i.d.)): 83%

Second part, led by results:

remaining at 1 h [11]: 93%
IC50 ([7]; Trypanosoma cruzi): 13 µM
remaining at 1 h [15]: 93%
SMILES: O=[N+]([O-])c1cn2c(n1)[S@@+]([O-])C[C@@H](OCc1ccc(OC(F)(F)F)cc1)C2 [Compound 25]
IC50 [2, 17]: > 64 µM
IC50 [3, 18]: 1.9 µM
IC50 ([4]; Trypanosoma brucei): 5.6 µM
IC50 ([6]; Leishmania infantum): > 64 µM
IC50 [8]: 2.8 ± 0.4 µg/mL (≈ 7.16 µM)
IC50 [9]: > 10 µg/mL

remaining at 1 h [11]: 26%
IC50 ([7]; Trypanosoma cruzi): 6.5 µM
remaining at 1 h [15]: 91%
SMILES: O=[N+]([O-])c1cn2c(n1)[S@@+]([O-])C[C@H](OCc1ccc(OC(F)(F)F)cc1)C2 [Compound 26]
IC50 [2, 17]: > 64 µM
IC50 [3, 18]: 7.3 µM
IC50 ([4]; Trypanosoma brucei): 34 µM
IC50 ([6]; Leishmania infantum): 41 µM
IC50 [8]: > 5 µg/mL
IC50 [9]: > 10 µg/mL

remaining at 1 h [11]: 89%
IC50 ([7]; Trypanosoma cruzi): 13 µM
remaining at 1 h [15]: 88%
SMILES: O=[N+]([O-])c1cn2c(n1)[S@+]([O-])C[C@H](OCc1ccc(OC(F)(F)F)cc1)C2 [Compound 27]
IC50 [2, 17]: > 64 µM
IC50 [3, 18]: 4.3 µM
IC50 ([4]; Trypanosoma brucei): 16 µM
IC50 ([6]; Leishmania infantum): 48 µM
IC50 [8]: > 5 µg/mL
IC50 [9]: > 10 µg/mL

remaining at 1 h [11]: 72%
Papp A→B at 150 min, 2 µM [16]: 11.7 ×10⁻⁶ cm/s
Papp B→A at 150 min, 2 µM [16]: 18.2 ×10⁻⁶ cm/s
solubility at 15 min ([12]; 0.1 M HCl, pH 1): 1260 µg/mL (≈ 2690 µM)
solubility at 15 min ([12]; water, pH 7): 9.9 µg/mL (≈ 21.1 µM)
IC50 [7]: 0.067 µM
remaining at 1 h [15]: 78%
SMILES: O=[N+]([O-])c1cn2c(n1)[S+]([O-])CC(OCc1ccc(-c3ccc(OC(F)(F)F)cc3)cn1)C2 (centres unmarked) [Compound 35, 2-Nitro-6-({5-[4-(trifluoromethoxy)phenyl]pyridin-2-yl}methoxy)-6,7-dihydro-5H-imidazo[2,1-b][1,3]thiazine 8-oxide]
selectivity index (MRC-5 IC50 / HAT IC50) [2]: > 500 times
selectivity index relative to 12 (fold better) [2]: 2.4 fold
IC50 ([2]; cytotoxicity toward human lung fibroblasts): 16 µM
potency against T. b. rhodesiense relative to 12 (fold higher) [3]: 11 fold
IC50 [3]: 0.023 µM
potency against T. b. brucei relative to 12 (fold greater) [4]: 9 fold
IC50 [4]: 0.03 µM
IC50 [6]: 0.41 µM
